According to patent publication US8507527B2, “Method for stabilizing anti-dementia drug” (EISAI R & D Management Co., Ltd., priority 2004, dated 2013):

Experiment: pH of aqueous solutions or suspensions of additives, polymers and donepezil hydrochloride
Assay type: physicochemical
Details: 2.5% aqueous solution or suspension

| Molecule | pH |
| --- | --- |
| OC[C@H]1O[C@@H](O[C@H]2[C@H](O)[C@@H](O)C(O)O[C@@H]2CO)[C@H](O)[C@@H](O)[C@H]1O (some centres unmarked) [FlowLac100, LACTOSE] | 5.5 |

Same assay, conditions: additive of the example alone, dissolved or suspended in purified water at 2.5%

| Molecule | pH OF ADDITIVES (2.5% AQUEOUS SOLUTIONS OR SUSPENSIONS) |
| --- | --- |
| O=C1O[C@H]([C@@H](O)CO)C(O)=C1O [ASCORBIC ACID, ascorbic acid] | 2.6 |
| N[C@@H](CC(=O)O)C(=O)O [ASPARTIC ACID, aspartic acid] | 3.0 |
| O=C(O)CC(O)(CC(=O)O)C(=O)O [CITRIC ACID, citric acid] | 2.0 |
| Cl.N[C@@H](CS)C(=O)O [CYSTEINE HYDROCHLORIDE, cysteine hydrochloride] | 1.5 |
| N[C@@H](CS)C(=O)O [CYSTEINE, cysteine] | 5.1 |
| O=C([O-])CC(O)(CC(=O)[O-])C(=O)O.[Na+].[Na+] [DISODIUM CITRATE, disodium citrate] | 5.2 |
| O=C([O-])CN(CCN(CC(=O)[O-])CC(=O)O)CC(=O)O.[Na+].[Na+] [DISODIUM EDETATE, disodium edetate] | 4.5 |
| NCC(=O)O [GLYCINE, glycine] | 6.2 |
| CSCC[C@H](N)C(=O)O [METHIONINE, methionine] | 5.9 |
| O=C1O[C@H]([C@@H](O)CO)C([O-])=C1O.[Na+] [SODIUM ASCORBATE, sodium ascorbate] | 7.5 |
| N[C@@H](CC(=O)[O-])C(=O)[O-].[Na+].[Na+] [SODIUM ASPARTATE, sodium aspartate] | 6.8 |
| O=C([O-])CC(O)(CC(=O)[O-])C(=O)[O-].[Na+].[Na+].[Na+] [SODIUM CITRATE, sodium citrate] | 8.3 |
| sodium dihydrogen citrate [SODIUM […]] | 3.7 |
